Data on one compound can be found in patent US20200289554A1, “BIOORTHOGONAL COMPOUNDS COMPRISING A PROPARGYL GROUP FOR TREATING CANCER” (THE UNIVERSITY COURT OF THE UNIVERSITY OF EDINBURGH, priority 2016, published 2020).

The test system of the test is U87G cells. Nature of the test: BOOM conversion: prodrug + Pd0-resins in cell culture, cell viability, U87G. The format is cell-based, human. To be noted: Homo sapiens, 120 h, prodrug in combination with Pd0-resins 0.8 mg/mL, 5 days, read-out: EC50, prodrug + Pd-resins. Here is the method: Following 5 days treatment, cells were incubated with PrestoBlue™ Cell Viability Reagent (Life Technologies) for 60-90 min. Fluorescence intensity values were related to the untreated cells (100% cell viability). […] Cells incubated in 0.1% (v/v) DMSO in media were used as untreated cell control.
The toxigenic effect as a result of in situ generation of parental drug in cell culture was determined by incubating all cells in tissue culture media containing 0.1% (v/v) DMSO and a) Pd^0, Au, or Pd/Au-resin (1 mg/mL for all cells tested, negative control); b) prodrug (negative control); or c) Pd^0, Au, or Pd/Au-resin (1 mg/mL for all cells)+prodrug (reaction assay). Cells incubated in 0.1% (v/v) DMSO in media was used as an untreated cell reference standard (100% viability). A PrestoBlue® cell viability assay as described above was carried out and fluorescent intensities compared to the untreated cell control.
A dose response study was performed for each cell line keeping the quantity of Pd^0 resin constant (0.8 mg/mL for U87G and 1 mg/mL for the rest of cell lines). […] Fluorescence intensity values (detected using a PerkinElmer EnVision 2101 multilabel reader with excitation filter at 540 nm and emissions filter at 590 nm) were determined relative to the untreated cell control.

The term EC50 denotes the concentration giving half of the maximal effect. As for `C#CCOc1ccc(CONC(=O)CCCCCCC(=O)Nc2ccccc2)cc1` [POB-Vor, Propargyloxybenzyl-Vorinostat], the concentration giving a half-maximal response (EC50) was 24.7 µM.
